Patent EP0656952B1, “CATIONIC PEPTIDES AND METHOD FOR PRODUCTION” (THE UNIVERSITY OF BRITISH COLUMBIA, priority 1992, dated 1994)

Assays:
[1] = test system: S. typhimurium defensin sensitive strain (C590); experiment: Minimum inhibitory concentration (MIC), broth dilution; format: cell-based; settings: MIC comparison with parent strain
Description: (§1) The minimum inhibitory concentrations of (MIC) of CEME, CEMA and melittin were determined for a number of different bacteria (Table 2). Briefly, cells were grown overnight at 37°C in LB-S (Luria broth without any salt supplement) and diluted one in 10,000 in the same medium to give concentrations of about 10^4 to 10^5 CFU/ml. The broth dilutions were set up in a 96 well microtiter plate by putting 200µl of LB-S containing the initial concentration of antibiotic or compound in column 1 and 100 µl of the same medium in columns 2-12. The compounds were diluted by taking 100 µl of broth from column 1 and mixing it with column 2, resulting in a one in two dilution. This was continued to column 10. Finally, 10 µl of bacteria were pipetted into columns 1-11, and the plates incubated overnight at 37°C. The next day the plates were scored for growth in the wells, and the MIC determined.

[2] = test system: a number of different bacteria; experiment: as above; format: cell-based; settings: MIC comparison
Description: as §1

[3] = test system: E. cloacae; experiment: 1-N-phenylnaphthylamine (NPN) uptake assay; format: cell-based; settings: 10 µM NPN, FIGURE 8
Text: (§2) The second assay determined membrane permeability by the ability of 1-N-phenylnaphthylamine (NPN), a small fluorescent probe, to insert itself into the membrane. Normally, very little NPN can penetrate the outer membrane, but in the presence of a membrane permeabilizer it can insert into the hydrophobic membrane resulting in an increase in fluorescence (FIGURES 7 and 8). This N-phenylnaphthylamine uptake assay was previously described by Loh, et al., Antimicrobial Agents and Chemo., 26:546, 1984. Cells were prepared exactly the same as for the lysozyme lysis assay. 1-N-phenylnaphthylamine (NPN) was dissolved in acetone at a concentration of 500 µM. NPN fluorescence was measured in a Perkin-Elmer 650-10S fluorescent spectrophotometer using excitation and emission wavelengths set to 350 nm and 420 nm respectively, with slit widths of 5 nm. The assay was standardized by adding 20 µl of NPN (final concentration of 10 µM) and 10µl of 0.64 mg/ml of polymyxin B (final concentration of 6.4 µg/ml) into 1 ml of cells, and adjusting the resulting fluorescence to read 90% deflection (90 arbitrary units). Various compounds were tested by adding 10 µl of different concentrations to a cuvette containing 1 ml of cells and 10 µM NPN. Permeabilizing activity was designated as the total fluorescence minus the fluorescence due to NPN alone. Following the fluorescence measurement, the OD600 of the cells was taken to ensure no significant cell lysis had occurred.

[4] = test system: P. aeruginosa; experiment: 1-N-phenylnaphthylamine (NPN) uptake assay; format: cell-based; settings: 10 µM NPN, FIGURE 7
Text: as §2

[5] = test system: P. aeruginosa H309; experiment: Lysozyme lysis assay (membrane permeabilization); format: cell-based; settings: P. aeruginosa data only
Description: Membrane permeabilization by polycationic compounds was measured in two different assays. The first assay measured membrane disruption by the ability of lysozyme to reach the periplasm and cause cell lysis. […] The uptake of tysozyme into whole cells due to membrane permeabilization by various compounds was previously described in Hancock, et al., Antimicrobial Agents and Chemo., 19:777; 1981. Overnight cultures of P. aeruginosa H309 or E. cloacae 218R1 grown in LB-S were diluted 1 in 50 in fresh medium and grown to an OD600 ≈ 0.5-0.6. The cells were harvested in a Silencer H-103N clinical centrifuge at 1800 g for 10 min, washed once with one volume of assay buffer (5 mM HEPES pH 7.2, 5 mM KCN), and resuspended in the same buffer to an OD600 of 0.5. Assays consisted of 600 µl of cells with 50 µg/ml of chicken egg white lysozyme and varying concentrations of cationic compounds. Cell lysis was measured as a decrease in the OD600 in a Perkin-Emmer dual beam spectrophotometer. Parallel experiments performed without lysozyme enabled the measurement of the lytic activity of the compounds themselves. To test whether or not permeability to lysozyme could be inhibited by divalent cations, various concentrations of MgCl2 were added to the assay after the addition of lysozyme and before the addition of the test compound.

[6] = test system: P. aeruginosa LPS; experiment: Dansyl polymyxin (DPx) displacement assay with purified LPS; format: binding; settings: on a µM basis, compared with polymyxin B
Description: DPx is a derivative of polymyxin that fluoresces strongly when bound to LPS, but weakly when free in solution. In this assay, DPx was incubated with LPS to saturate the binding sites and then, while polycationic compounds are titrated into the reaction, displacement of the DPx was monitored by the decrease in fluorescence (FIGURE 9). P. aeruginosa LPS was isolated as previously described (Darveau, et al., J. of Bacteriology, 155:831, 1983) Dansyl polymyxin was synthesized as described by Schindler, et al., B. Antimicrobial Agents and Chemo, 8:95, 1975.
Briefly, 40 mgs of polymyxin B and 10 mgs of dansyl chloride were mixed in 2 mls of 60 mM NaHC03 and 40% acetone and incubated in the dark for 90 minutes. […] The dansyl polymyxin was resuspended in 5 mM Hepes pH 7.0, quantitated by dinitrophenylation and stored in aliquots at -20°C.
The method of Moore, et al., (Antimicrobial Agents end Chemo., 29:496, 1987), was used to test how much DPx was needed to saturate the binding sties on LPS. Briefly, 5 µl samples of 100 µM DPx were titrated sequentially into 1ml of 3 µg/ml of LPS until a maximum fluorescence was reached. The fluorescence was measured in a Perkin-Elmer 650-10S fluorescence spectrophotometer with an excitation wavelength of 340 nm and an emission wavelength of 485 nm using slit widths of 5 nm. […]

[7] = Synergy: MIC of antibiotics in the presence of sub-MIC levels of cationic peptides; format: cell-based
Description: as §1
The ability of the cationic peptides to work synergystically was examined by determining the MIC values for some commonly used antibiotics in the presence of sub-MIC levels of cationic peptides (Table 4). […] This may be due to the high membrane permeabilizing activity of CEMA (see below). However, the peptides did lower the MIC of polymyxin B, possibly due to the fact that they are all taken up by the same pathway and are therefore aiding each other's uptake. […]

[8] = test system: E. coli strain DC2; experiment: Acid-urea gel overlay antibacterial activity test; format: cell-based; settings: acid-urea gel overlaid with agar containing ≈ 10^5 E. coli strain DC2, overnight at 37°C
Description: A sample of the partially purified CEME protein was electrophoresed on a 15% acid-urea gel, which separates proteins based on charge and mass (Panyim and Chalkey, Arch. Biochem. Biophys., 130:337, 1969). The pH of the buffer is acidic (≈ pH 5.0) and the polarity is reversed such that proteins migrate to the cathode. Therefore, the small cationic peptides run relatively quickly through the gel and thus can be easily identified. Antibacterial activity was tested as previously described (Hultmark, Eur. J. Biochem., 106:7, 1980). The gel was incubated in Mueller Hinton broth + 0.2M NaPO4 pH 7.4 for 1 hr. It was overlaid with 5 mls of the same media containing 0.6% agar and ≈ 10^5 E. coli strain DC2, and then again with 5 ml of the same media containing only 0.6% agar. […] Melittin is used as a positive control due to its antibacterial activity and similarity in size and PI values.

Compound | sensitivity of the S. typhimurium defensin sensitive strain (C590) [1] | resistance of the mutant SC9252 [2] | opening up the membrane to NPN [3] | opening up the membrane to NPN [4] | permeabilizer for lysozyme relative to gentamicin ([5]; lysis without lysozyme taken into consideration) | cell lysis in the absence of lysozyme ([5]; increased concentrations of peptide) | affinity for LPS (I50) [6] | effect on the MIC of polymyxin B [7] | zones of clearing at the migration site [8]
polymyxin B | four-fold more sensitive | increased resistance | equally active | equally active |  |  |  |  | 
gentamicin | two-fold more sensitive |  |  |  |  |  |  |  | 
melittin | two-fold more sensitive |  |  | less active | 5- to 10 fold | cell lysis in the absence of lysozyme occurred | slightly lower affinities | lower than those in the presence of CEME and CEMA | zones of clearing
CC(C)(O/N=C(\C(=O)N[C@@H]1C(=O)N2C(C(=O)[O-])=C(C[n+]3ccccc3)CS[C@H]12)c1csc(N)n1)C(=O)O [ceftazidime] | unchanged | increased resistance |  |  |  |  |  |  | 
